# Laboratory results reported in patent US20200022951A1, “MULTIVITAMIN COMPOSITION FOR IMPROVING VERBAL FLUENCY, DECREASING PERFORMANCE ANXIETY SYMPTOMS AND METHOD FOR PREPARING SAME” (priority 2017, published 2020).
# Tested on: individuals with performance anxiety
# Test: trials using the composition: anxiety and speech fluency
# Assay type: in vivo
# Conditions: as component of the composition of the invention
structure (smiles),measurement,value
NCCCC[C@H](N)C(=O)O [L-Lysine],effect on anxiety amelioration,positive effect
